ChEMBL document CHEMBL1201862, “PubChem BioAssay data set” (2004)
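Tested at 5 concentrations; 48 h exposure; 96-well plates; endpoints linearly interpolated, else capped at highest concentration. At the GI50, growth is halved.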 Activity calls are given as the source filed them. No stated cut-off is given here; in the data, active = GI50 up to about 1.1 µM and inactive = higher.

Columns and labels:
Test in all cases: NCI tumour cell line growth inhibition, 48 h
HCC 2998 = test system: HCC 2998
SF-295 = test system: SF-295
KM12 = test system: KM12
COLO 205 = test system: COLO 205
K562 = test system: K562
CCRF-CEM = test system: CCRF-CEM
OVCAR-4 = test system: OVCAR-4
HCT-116 = test system: HCT-116
NCI-H460 = test system: NCI-H460
U-251 = test system: U-251
SN12C = test system: SN12C
CAKI-1 = test system: CAKI-1
RPMI-8226 = test system: RPMI-8226
HT-29 = test system: HT-29
OVCAR-3 = test system: OVCAR-3
MDA-N = test system: MDA-N
DU-145 = test system: DU-145
MDA-MB-435 = test system: MDA-MB-435
MDA-MB-231 = test system: MDA-MB-231

Measured: GI50

O=C1Cc2ccccc2CCc2ccccc21
inactive: HCC 2998 > 100 µM | SF-295 83 µM | KM12 > 100 µM | COLO 205 > 100 µM | K562 75.3 µM | CCRF-CEM > 100 µM | OVCAR-4 > 100 µM | HCT-116 > 100 µM | NCI-H460 > 100 µM | U-251 > 100 µM | SN12C > 100 µM | CAKI-1 > 100 µM | RPMI-8226 82.4 µM | HT-29 > 100 µM | OVCAR-3 > 100 µM

CC1=NN(c2ccccc2)C(=O)/C1=C\c1ccc([N+](=O)[O-])cc1
inactive: HCC 2998 25.6 µM | SF-295 31.1 µM | KM12 26.4 µM | COLO 205 17.7 µM | K562 28.6 µM | CCRF-CEM 20.7 µM | OVCAR-4 19.3 µM | NCI-H460 34 µM | U-251 41.3 µM | SN12C 32.1 µM | CAKI-1 27.3 µM | RPMI-8226 23.6 µM | HT-29 28.3 µM

O=C(c1ccccc1)c1ccc(OCCOc2ccc(Nc3ccccc3)cc2)cc1
inactive: HCC 2998 > 100 µM | SF-295 27.2 µM | KM12 > 100 µM | COLO 205 > 100 µM | K562 > 100 µM | CCRF-CEM > 100 µM | OVCAR-4 17.7 µM | HCT-116 69.2 µM | NCI-H460 65.5 µM | U-251 16.6 µM | SN12C 42.3 µM | CAKI-1 47.3 µM | OVCAR-3 37.2 µM

O=[N+]([O-])c1ccc(-c2ccc(C3=Nn4c(nnc4-c4ccc(Cl)cc4)SC3)o2)cc1
inactive: HCC 2998 > 100 µM | SF-295 26.5 µM | KM12 > 100 µM | COLO 205 > 100 µM | K562 > 100 µM | CCRF-CEM > 100 µM | OVCAR-4 > 100 µM | HCT-116 45 µM | NCI-H460 > 73.3 µM | U-251 37.1 µM | SN12C 97.9 µM | CAKI-1 > 100 µM | RPMI-8226 > 100 µM | HT-29 > 100 µM | OVCAR-3 94.8 µM

O=C1c2ccccc2C(=O)C12CCc1ccccc12
inactive: HCC 2998 > 100 µM | SF-295 > 100 µM | COLO 205 > 100 µM | K562 83.4 µM | CCRF-CEM > 100 µM | OVCAR-4 > 100 µM | NCI-H460 > 100 µM | U-251 > 100 µM | SN12C > 100 µM | CAKI-1 > 100 µM | HT-29 > 100 µM | OVCAR-3 > 100 µM

C/C(CCc1ccccc1)=N\NC(N)=S
inactive: HCC 2998 > 100 µM | SF-295 > 100 µM | KM12 > 100 µM | COLO 205 > 100 µM | K562 > 100 µM | CCRF-CEM 75.5 µM | OVCAR-4 > 100 µM | HCT-116 > 100 µM | NCI-H460 > 100 µM | U-251 > 100 µM | SN12C > 100 µM | CAKI-1 > 100 µM | RPMI-8226 27.3 µM | HT-29 27.8 µM | OVCAR-3 > 100 µM

O=c1ncccn1C1C=C(CO)C(O)C1O (configuration not stated)
inactive: HCC 2998 > 50 µM | SF-295 > 50 µM | KM12 > 50 µM | COLO 205 > 50 µM | K562 > 50 µM | CCRF-CEM > 50 µM | OVCAR-4 > 50 µM | NCI-H460 > 50 µM | U-251 > 50 µM | CAKI-1 > 50 µM | RPMI-8226 > 50 µM | HT-29 > 50 µM | OVCAR-3 > 50 µM

CC1=C(NC(=O)/C(=N/NC(=S)NN)C2C(=O)CC(C)(C)CC2=O)C(=O)c2ccccc2C1=O
inactive: HCC 2998 10.8 µM | SF-295 13.7 µM | KM12 7.03 µM | COLO 205 12.5 µM | K562 10.6 µM | CCRF-CEM 3.56 µM | OVCAR-4 13.7 µM | HCT-116 3.97 µM | NCI-H460 17.7 µM | U-251 3.91 µM | SN12C 7.4 µM | CAKI-1 20.7 µM | RPMI-8226 10.6 µM | HT-29 11.1 µM | OVCAR-3 2.3 µM

N#C/C(=C\c1ccccc1)C(NO)Nc1ccccc1 (configuration not stated)
inactive: HCC 2998 > 100 µM | SF-295 > 100 µM | KM12 > 100 µM | COLO 205 45.3 µM | K562 44.7 µM | CCRF-CEM 31.7 µM | OVCAR-4 84.3 µM | HCT-116 40.7 µM | NCI-H460 > 100 µM | U-251 30.3 µM | SN12C > 100 µM | CAKI-1 86.5 µM | RPMI-8226 58.1 µM | HT-29 72.9 µM | OVCAR-3 48.2 µM

N#CC(/N=N/c1ccccc1C(=O)O)C(N)=O (configuration not stated)
inactive: SF-295 > 100 µM | KM12 > 100 µM | K562 > 100 µM | CCRF-CEM > 100 µM | OVCAR-4 > 100 µM | HCT-116 > 100 µM | NCI-H460 > 100 µM | MDA-N > 100 µM | U-251 > 100 µM | SN12C > 100 µM | CAKI-1 > 100 µM | RPMI-8226 > 100 µM | HT-29 > 100 µM | DU-145 > 100 µM | MDA-MB-435 > 100 µM | OVCAR-3 > 100 µM | MDA-MB-231 > 100 µM

Oc1ccc(-c2c3ccccc3c(-c3ccc(O)cc3)c3ccccc23)cc1
inactive: HCC 2998 > 100 µM | SF-295 84.1 µM | KM12 > 100 µM | COLO 205 > 100 µM | K562 > 100 µM | CCRF-CEM > 100 µM | OVCAR-4 > 100 µM | HCT-116 87.5 µM | NCI-H460 > 100 µM | U-251 > 100 µM | SN12C > 100 µM | CAKI-1 > 100 µM | RPMI-8226 75.2 µM | HT-29 > 100 µM | OVCAR-3 > 100 µM

O=C1Oc2cc3c(c4cccc1c24)OCN(c1ccccc1)C3
inactive: HCC 2998 > 100 µM | SF-295 > 100 µM | KM12 > 100 µM | COLO 205 > 100 µM | K562 23.2 µM | CCRF-CEM 29.1 µM | OVCAR-4 > 100 µM | HCT-116 > 100 µM | NCI-H460 > 100 µM | U-251 > 100 µM | SN12C > 100 µM | CAKI-1 78.3 µM | RPMI-8226 35.1 µM | HT-29 > 100 µM | OVCAR-3 > 100 µM

O=C(c1nc2ccccc2nc1O)C(O)c1ccccc1 (configuration not stated)
inactive: HCC 2998 53.7 µM | SF-295 > 100 µM | KM12 54.6 µM | COLO 205 > 100 µM | K562 40.3 µM | CCRF-CEM 32.7 µM | OVCAR-4 95.3 µM | HCT-116 > 100 µM | NCI-H460 > 100 µM | U-251 43.7 µM | SN12C > 100 µM | CAKI-1 > 100 µM | RPMI-8226 53.5 µM | HT-29 > 100 µM | OVCAR-3 > 100 µM

CCOC(=O)CSc1nnc(C(Sc2nc(-c3ccccc3)c(-c3ccccc3)[nH]2)C(C)C)n1-c1ccccc1 (configuration not stated)
inactive: HCC 2998 19.2 µM | SF-295 > 10 µM | KM12 17.7 µM | COLO 205 17 µM | K562 24.7 µM | CCRF-CEM 14.3 µM | OVCAR-4 17.5 µM | HCT-116 14.5 µM | NCI-H460 17.5 µM | MDA-N 30.4 µM | U-251 > 10 µM | SN12C 15.9 µM | RPMI-8226 33.4 µM | HT-29 14 µM | DU-145 39.6 µM | OVCAR-3 > 10 µM | MDA-MB-231 24.4 µM

COc1c(CC(C)=O)c2ccccc2n1C(C)=O
inactive: HCC 2998 > 100 µM | SF-295 > 100 µM | KM12 > 100 µM | COLO 205 > 100 µM | K562 > 100 µM | CCRF-CEM > 100 µM | OVCAR-4 > 100 µM | HCT-116 > 100 µM | NCI-H460 > 100 µM | U-251 > 100 µM | SN12C > 100 µM | CAKI-1 > 100 µM | RPMI-8226 > 100 µM | HT-29 > 100 µM | OVCAR-3 > 100 µM

CN(CCO)c1nc(N)cc(=O)[nH]1
inactive: HCC 2998 > 100 µM | SF-295 > 100 µM | KM12 > 100 µM | COLO 205 > 100 µM | K562 > 100 µM | CCRF-CEM > 100 µM | HCT-116 > 100 µM | NCI-H460 > 100 µM | U-251 > 100 µM | SN12C > 100 µM | CAKI-1 > 100 µM | RPMI-8226 > 100 µM | HT-29 > 100 µM | OVCAR-3 > 100 µM

NNC(=O)CCC(=O)Nc1cc(Cl)c(Cl)cc1Cl
inactive: HCC 2998 > 100 µM | SF-295 > 100 µM | KM12 > 100 µM | COLO 205 > 100 µM | K562 > 100 µM | CCRF-CEM > 100 µM | OVCAR-4 51.5 µM | HCT-116 > 100 µM | NCI-H460 > 100 µM | U-251 > 100 µM | SN12C > 100 µM | CAKI-1 > 100 µM | RPMI-8226 > 100 µM | HT-29 > 100 µM | OVCAR-3 75.2 µM

Cc1ccc(NC(=O)CC2C(=O)Nc3ccccc3S2(=O)=O)c(C)c1 (configuration not stated)
inactive: HCC 2998 13.4 µM | SF-295 25.5 µM | K562 4.66 µM | CCRF-CEM 16.4 µM | OVCAR-4 18.7 µM | HCT-116 12.2 µM | NCI-H460 16 µM | U-251 12.7 µM | SN12C 18.6 µM | CAKI-1 8.79 µM | RPMI-8226 15.2 µM | HT-29 13.5 µM | OVCAR-3 14.1 µM

CC1C[C@H](OC(N)=O)C(C)CC1=O (some centres not stated)
inactive: HCC 2998 > 100 µM | SF-295 > 100 µM | KM12 > 100 µM | COLO 205 > 100 µM | K562 > 100 µM | CCRF-CEM > 100 µM | OVCAR-4 > 100 µM | HCT-116 > 100 µM | NCI-H460 > 100 µM | U-251 > 100 µM | SN12C > 100 µM | CAKI-1 > 100 µM | RPMI-8226 > 100 µM | HT-29 > 100 µM | OVCAR-3 > 100 µM
